Test results as given in ChEMBL document CHEMBL6078677, “Discovery and optimization of tetrahydroacridine derivatives as a novel class of antibiotics against multidrug-resistant Gram-positive pathogens by targeting type I signal peptidase and disrupting bacterial membrane” (Eur J Med Chem, 2025).
Values after ≈ are worked out from the molar mass of the structure shown.

Columns and labels:
[1] = system: Streptococcus agalactiae; assay: Antimicrobial activity against Streptococcus agalactiae DL03 harboring erythromycin-resistance rRNA methylase B assessed as inhibition of visible growth of bacteria incubated for 20 hrs by broth microdilution method; assay type: functional
[2] = system: Pseudomonas aeruginosa; assay: Antimicrobial activity against Pseudomonas aeruginosa PA01 assessed as inhibition of visible growth of bacteria incubated for 20 hrs by broth microdilution method; assay type: functional
[3] = Metabolic stability in rat liver microsomes assessed as half-life at 100 uM preincubated for 5 mins followed by NADPH addition and measured upto 60 mins by LC-MS/MS analysis; assay type: ADME, Microsome; conditions: time < 65 min
[4] = Hemolytic activity in Kunming mouse erythrocytes assessed as hemolysis at 16 times of MIC measured after 1 hrs by absorbance based assay relative to control; assay type: toxicity, cell-based, Erythrocyte; conditions: read-out: Activity
[5] = system: Staphylococcus aureus; assay: Disruption of preformed biofilm in Staphylococcus aureus ATCC 29213 at 1 microg/ml measured after 72 hrs by crystal violet staining based analysis relative to control; assay type: functional; conditions: dose 1 µg/ml
[6] = system: Staphylococcus aureus; assay: Antimicrobial activity against Staphylococcus aureus YZSA-15 harboring erythromycin resistance rRNA methylase C and vancomycin resistance locus assessed as inhibition of visible growth of bacteria incubated for 20 hrs by broth microdilution method; assay type: functional
[7] = system: Staphylococcus aureus; assay: Antibacterial activity against methicillin-resistant Staphylococcus aureus YZSA-24 infected in cyclophosphamide-induced neutrophil depleted female ICR mouse model of skin infection assessed as log reduction in bacterial load at 2.5 %, TOP preadministered with cyclophosphamide for 5 days followed by bacterial administration and measured after 25 hrs of compound administration relative to vehicle group; assay type: functional
[8] = Metabolic stability in human liver microsomes assessed as intrinsic clearance at 100 uM preincubated for 5 mins followed by NADPH addition and measured upto 60 mins by LC-MS/MS analysis; assay type: ADME, Microsome; conditions: time < 65 min, read-out: CLH
[9] = Cytotoxicity against human HEp-2 cells assessed as cell viability at 16 times of MIC incubated for 48 hrs by CCK8 assay (reference value: 100 %); assay type: toxicity, cell-based; conditions: read-out: Activity
[10] = Cytotoxicity against human Caco-2 cells assessed as cell viability at 2 times of MIC incubated for 48 hrs by CCK8 assay (reference value: 99.54 %); assay type: toxicity, cell-based; conditions: read-out: Activity
[11] = system: Staphylococcus aureus; assay: Bactericidal activity against Staphylococcus aureus ATCC 29213 assessed as decrease in bacterial number measured within 12 hrs by time-kill kinetics assay; assay type: functional, organism-based
[12] = Metabolic stability in rat liver microsomes assessed as hepatic extraction ratio at 100 uM preincubated for 5 mins followed by NADPH addition and measured upto 60 mins by LC-MS/MS analysis; assay type: ADME, Microsome; conditions: time < 65 min, read-out: ERH
[13] = Cytotoxicity against human HEp-2 cells assessed as cell viability at 8 times of MIC incubated for 48 hrs by CCK8 assay (reference value: 100 %); assay type: toxicity, cell-based; conditions: read-out: Activity
[14] = system: Staphylococcus aureus; assay: Antibacterial activity against methicillin-resistant Staphylococcus aureus YZSA-24 infected in cyclophosphamide-induced neutrophil depleted female ICR mouse model of skin infection assessed as log reduction in bacterial load at 1 %, TOP preadministered with cyclophosphamide for 5 days followed by bacterial administration and measured after 25 hrs of compound administration relative to vehicle group; assay type: functional
[15] = system: Staphylococcus aureus; assay: Antibiofilm activity against Staphylococcus aureus ATCC 29213 assessed as eradication of preformed biofilm by measuring residual biomass at 2 microg/ml measured after 72 hrs by crystal violet staining based analysis relative to control; assay type: functional; conditions: dose 2 µg/ml
[16] = system: Salmonella enteritidis; assay: Antimicrobial activity against Salmonella enteritis S1 assessed as inhibition of visible growth of bacteria incubated for 20 hrs by broth microdilution method; assay type: functional, Salmonella enterica subsp. enterica serovar Enteritidis; conditions: Salmonella enterica
[17] = Metabolic stability in mouse liver microsomes assessed as half-life at 100 uM preincubated for 5 mins followed by NADPH addition and measured upto 60 mins by LC-MS/MS analysis; assay type: ADME, Microsome; conditions: time < 65 min
[18] = system: Enterococcus faecalis; assay: Antimicrobial activity against Enterococcus faecalis J2 harboring erythromycin-resistance rRNA methylase B and oxazolidinone phenicol transferable resistance gene assessed as inhibition of visible growth of bacteria incubated for 20 hrs by broth microdilution method; assay type: functional
[19] = Cytotoxicity against human Caco-2 cells assessed as cell viability at 1 time of MIC incubated for 48 hrs by CCK8 assay (reference value: 99.54 %); assay type: toxicity, cell-based; conditions: read-out: Activity
[20] = Cytotoxicity against human Caco-2 cells assessed as cell viability at 16 times of MIC incubated for 48 hrs by CCK8 assay (reference value: 99.54 %); assay type: toxicity, cell-based; conditions: read-out: Activity
[21] = system: Acinetobacter baumannii; assay: Antimicrobial activity against Acinetobacter baumannii AB11 assessed as inhibition of visible growth of bacteria incubated for 20 hrs by broth microdilution method; assay type: functional
[22] = system: Enterococcus faecium; assay: Antimicrobial activity against Enterococcus faecium HFY01 assessed as inhibition of visible growth of bacteria incubated for 20 hrs by broth microdilution method; assay type: functional
[23] = system: Staphylococcus aureus; assay: Antimicrobial activity against Staphylococcus aureus YZSA-24 harboring erythromycin resistance rRNA methylase C and methicillin resistance gene resistance locus assessed as inhibition of visible growth of bacteria incubated for 20 hrs by broth microdilution method; assay type: functional
[24] = Hemolytic activity in Kunming mouse erythrocytes assessed as hemolysis at 8 times of MIC measured after 1 hrs by absorbance based assay relative to control; assay type: toxicity, cell-based, Erythrocyte; conditions: read-out: Activity
[25] = system: Enterococcus faecalis; assay: Antimicrobial activity against Enterococcus faecalis ES01 harboring erythromycin-resistance rRNA methylase B and vanB-type vancomycin-resistance locus assessed as inhibition of visible growth of bacteria incubated for 20 hrs by broth microdilution method; assay type: functional
[26] = system: Acinetobacter baumannii; assay: Antimicrobial activity against Acinetobacter baumannii 7979 assessed as inhibition of visible growth of bacteria incubated for 20 hrs by broth microdilution method; assay type: functional
[27] = system: Streptococcus suis; assay: Antimicrobial activity against Streptococcus suis P1/7 assessed as inhibition of visible growth of bacteria incubated for 20 hrs by broth microdilution method; assay type: functional
[28] = Cytotoxicity against human HEp-2 cells assessed as cell viability at 4 times of MIC incubated for 48 hrs by CCK8 assay (reference value: 100 %); assay type: toxicity, cell-based; conditions: read-out: Activity
[29] = molecular target: Signal peptidase I (Escherichia coli K-12, UniProt P00803); assay: Binding affinity to recombinant 6His-tagged Escherichia coli LepB (77 to 324 residues) extracted from Escherichia coli BL21 (DE3) cells assessed as dissociation constant by MST analysis
Chain of Signal peptidase I (P00803 whole entry, the tested form may be a part): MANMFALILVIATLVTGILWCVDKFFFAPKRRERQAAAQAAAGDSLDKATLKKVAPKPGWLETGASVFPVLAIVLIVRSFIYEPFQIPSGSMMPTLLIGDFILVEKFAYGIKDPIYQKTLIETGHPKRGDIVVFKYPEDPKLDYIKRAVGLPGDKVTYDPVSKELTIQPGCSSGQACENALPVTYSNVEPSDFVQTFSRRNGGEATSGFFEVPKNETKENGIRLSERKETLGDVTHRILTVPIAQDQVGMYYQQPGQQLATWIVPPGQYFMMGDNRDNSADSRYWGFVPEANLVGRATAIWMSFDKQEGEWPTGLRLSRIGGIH

[30] = system: Enterococcus faecalis; assay: microbe, parasite or virus in culture; assay type: functional; conditions: SF23-1, time 20 hrs
Description: Antimicrobial activity against Enterococcus faecalis SF23-1 harboring erythromycin-resistance rRNA methylase B, tetracycline efflux protein L and chloramphenicol-florfenicol resistance methylase assessed as inhibition of visible growth of bacteria incubated for 20 hrs by broth microdilution method

[31] = Hemolytic activity in Kunming mouse erythrocytes assessed as hemolysis at 2 times of MIC measured after 1 hrs by absorbance based assay relative to control; assay type: toxicity, cell-based, Erythrocyte; conditions: read-out: Activity
[32] = Cytotoxicity against human HEp-2 cells assessed as cell viability at 2 times of MIC incubated for 48 hrs by CCK8 assay (reference value: 100 %); assay type: toxicity, cell-based; conditions: read-out: Activity
[33] = Acute toxicity in ICR mouse model assessed as change in spleen pathology at 25 to 100 mg/kg, IG administered for 7 days by H and E staining based analysis; assay type: organism-based; conditions: in vivo, po, 168 h, dose 25-100 mg/kg, time 7 day
[34] = Cytotoxicity against human Caco-2 cells assessed as cell viability at 4 times of MIC incubated for 48 hrs by CCK8 assay (reference value: 99.54 %); assay type: toxicity, cell-based; conditions: read-out: Activity
[35] = Acute toxicity in ICR mouse model assessed as change in heart pathology at 25 to 100 mg/kg, IG administered for 7 days by H and E staining based analysis; assay type: organism-based; conditions: in vivo, po, 168 h, dose 25-100 mg/kg, time 7 day

CC1C/C(=C\c2ccc(-c3ccc(Cl)c(C(F)(F)F)c3)s2)c2nc3ccccc3c(C(=O)O)c2C1 (racemic)
MIC [1]: 32 µg/mL (≈ 62.3 µM)
MIC [2]: > 128 µg/mL
half-life at 100 µM [3]: > 3.08 h
hemolysis at 1 h, 16 times of MIC [4]: 74%
Activity [5]: ~50%
MIC [6]: 1 µg/mL (≈ 1.95 µM)
Activity [7]: 2.36 log10CFU/ml
microsomal CLint at 100 µM [8]: < 7.5 µL/min/mg
viability at 48 h, 16 times of MIC [9]: 44.5%
viability at 48 h, 2 times of MIC [10]: 96.6%
Activity [11]: Dose-dependent-effect
hepatic extraction ratio at 1 h, 100 µM [12]: < 0.21
viability at 48 h, 8 times of MIC [13]: 82.5%
Activity [14]: 1.27 log10CFU/ml
Activity [15]: 31.4%
MIC [16]: 128 µg/mL (≈ 249 µM)
half-life at 100 µM [17]: > 3.08 h
MIC [18]: 2 µg/mL (≈ 3.89 µM)
viability at 48 h, 1 time of MIC [19]: 96.6%
viability at 48 h, 16 times of MIC [20]: 61.7%
MIC [21]: > 128 µg/mL
MIC [22]: 2 µg/mL (≈ 3.89 µM)
MIC [23]: 1 µg/mL (≈ 1.95 µM)
hemolysis at 1 h, 8 times of MIC [24]: 5.4%
MIC [25]: 2 µg/mL (≈ 3.89 µM)
MIC [26]: > 128 µg/mL
MIC [27]: 16 µg/mL (≈ 31.1 µM)
viability at 48 h, 4 times of MIC [28]: 91.4%
Kd [29]: 13.6 µM
MIC [30]: 1 µg/mL (≈ 1.95 µM)
hemolysis at 1 h, 2 times of MIC [31]: 0%
viability at 48 h, 2 times of MIC [32]: 93.7%
Activity [33]: Non-toxic
viability at 48 h, 4 times of MIC [34]: 92.9%
Activity [35]: Non-toxic
